The values below come from patent publication US9730940B2, “Purine inhibitors of human phosphatidylinositol 3-kinase delta” (priority 2012, dated 2017).

A value given as a limit tells only on which side of the number the result lay.

Chain of PI3K-alpha (P42336 whole entry, looked up, canonical isoform): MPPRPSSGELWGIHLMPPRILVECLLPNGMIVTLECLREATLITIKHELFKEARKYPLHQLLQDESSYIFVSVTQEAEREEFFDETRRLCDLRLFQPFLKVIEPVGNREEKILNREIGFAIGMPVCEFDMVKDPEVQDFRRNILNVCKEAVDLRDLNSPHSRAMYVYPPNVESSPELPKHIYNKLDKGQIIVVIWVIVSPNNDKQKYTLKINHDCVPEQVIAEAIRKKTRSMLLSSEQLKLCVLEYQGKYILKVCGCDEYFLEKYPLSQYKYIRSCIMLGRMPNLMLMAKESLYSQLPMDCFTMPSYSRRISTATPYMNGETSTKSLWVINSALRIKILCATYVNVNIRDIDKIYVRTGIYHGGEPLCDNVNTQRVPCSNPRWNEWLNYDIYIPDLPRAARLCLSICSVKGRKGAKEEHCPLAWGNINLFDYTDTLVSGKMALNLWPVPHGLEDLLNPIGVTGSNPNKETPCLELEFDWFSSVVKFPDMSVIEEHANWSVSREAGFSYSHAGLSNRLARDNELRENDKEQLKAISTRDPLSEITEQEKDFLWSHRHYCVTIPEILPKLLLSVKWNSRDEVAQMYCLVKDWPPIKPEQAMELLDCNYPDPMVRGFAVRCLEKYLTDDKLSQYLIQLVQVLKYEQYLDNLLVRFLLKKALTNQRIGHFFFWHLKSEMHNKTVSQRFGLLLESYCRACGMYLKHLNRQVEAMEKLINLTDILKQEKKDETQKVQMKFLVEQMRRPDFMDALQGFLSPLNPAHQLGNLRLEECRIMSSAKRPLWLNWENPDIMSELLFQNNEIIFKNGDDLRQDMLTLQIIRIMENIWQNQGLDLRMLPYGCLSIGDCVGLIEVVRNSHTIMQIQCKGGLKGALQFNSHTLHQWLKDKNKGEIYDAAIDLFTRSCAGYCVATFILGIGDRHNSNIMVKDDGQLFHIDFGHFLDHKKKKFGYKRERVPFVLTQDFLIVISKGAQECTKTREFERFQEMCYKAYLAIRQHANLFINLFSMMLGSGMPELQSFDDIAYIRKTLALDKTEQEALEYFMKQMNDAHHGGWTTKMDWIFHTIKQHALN
Chain of PI3K-alpha (P27986 whole entry partner, looked up, canonical isoform): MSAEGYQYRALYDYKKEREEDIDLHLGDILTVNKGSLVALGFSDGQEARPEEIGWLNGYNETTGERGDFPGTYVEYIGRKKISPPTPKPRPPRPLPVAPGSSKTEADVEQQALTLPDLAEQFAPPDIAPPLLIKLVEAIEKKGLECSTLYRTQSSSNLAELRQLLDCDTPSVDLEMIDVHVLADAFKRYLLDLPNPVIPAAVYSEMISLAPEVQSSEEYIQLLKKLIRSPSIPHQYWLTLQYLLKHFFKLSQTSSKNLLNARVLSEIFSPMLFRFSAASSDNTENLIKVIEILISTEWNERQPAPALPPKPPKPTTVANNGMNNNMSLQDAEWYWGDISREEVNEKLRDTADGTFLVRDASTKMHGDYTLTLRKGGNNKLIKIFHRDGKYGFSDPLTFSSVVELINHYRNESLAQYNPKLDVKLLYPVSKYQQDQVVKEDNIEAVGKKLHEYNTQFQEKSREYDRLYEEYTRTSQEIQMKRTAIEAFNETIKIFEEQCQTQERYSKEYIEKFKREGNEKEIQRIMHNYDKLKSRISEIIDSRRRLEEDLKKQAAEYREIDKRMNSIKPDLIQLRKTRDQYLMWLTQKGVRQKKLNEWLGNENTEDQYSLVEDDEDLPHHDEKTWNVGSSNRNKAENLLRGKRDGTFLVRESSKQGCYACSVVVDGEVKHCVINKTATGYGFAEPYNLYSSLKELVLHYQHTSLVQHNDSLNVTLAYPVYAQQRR

The experiment has as its target PI3K-alpha (Homo sapiens (Human), UniProt P42336). The experiment in a line: HTRF PI3K biochemical assay, alpha isoform. The conditions noted are these: ratio PI3K-alpha IC50 value/PI3K-delta IC50 value. On the technique in general: TR-FRET usually uses a lanthanide donor and a delayed reading to cut background.
For `CCn1ncc(-c2nc3c(O[C@H]4CCCN(C(=O)OC(C)(C)C)C4)ncnc3n2C)c1C` [Compound 1-41, (S)-tert-butyl 3-((8-(1-ethyl-5-methyl-1H-pyrazol-4-yl)-9-methyl-9H-purin-6-yl)oxy)piperidine-1-carboxylate], the “Relative Selectivity versus PI3Kalpha” value was greater than 10.

Take `Cn1cnc2c(O[C@H]3CCN(C(=O)OC(C)(C)C)C3)ncnc21` [Compound 1-32, (S)-tert-butyl 3-((9-methyl-9H-purin-6-yl)oxy)pyrrolidine-1-carboxylate]: the “Relative Selectivity versus PI3Kalpha” value is greater than 7.

Turning to `CCn1c(-c2ccc(C(F)(F)F)nc2)nc2c(O[C@H]3CCN(C(=O)N4CC(OC)C4)C3)ncnc21` [Compound 5-28, (S)-(3-((9-ethyl-8-(6-(trifluoromethyl)pyridin-3-yl)-9H-purin-6-yl)oxy)pyrrolidin-1-yl)(3-methoxyazetidin-1-yl)methanone], the “Relative Selectivity versus PI3Kalpha” value is listed as greater than 10.

Regarding `CCn1c(-c2cnc(C)nc2)nc2c(O[C@H]3CCN(c4cncnc4)C3)ncnc21` [Compound 7-23, 9-ethyl-8-(2-methylpyrimidin-5-yl)-6-{[(3S)-1-pyrimidin-5-ylpyrrolidin-3-yl]oxy}-9H-purine], the “Relative Selectivity versus PI3Kalpha” value was greater than 10.

Turning to `CCn1ncc(-c2nc3c(O[C@H]4CCN(C(=O)c5nnc(C)o5)C4)ncnc3n2C)c1C` [Compound 2-81, 8-(1-ethyl-5-methyl-1H-pyrazol-4-yl)-9-methyl-6-({(3S)-1-[(5-methyl-1,3,4-oxadiazol-2-yl)carbonyl]pyrrolidin-3-yl}oxy)-9H-purine], the “Relative Selectivity versus PI3Kalpha” value came to 5.

In the case of `CCn1c(-c2cnc(OC)c(F)c2)nc2c(O[C@H]3CCN(C(=O)C(C)C)C3)ncnc21` [Compound 3-54, 9-ethyl-8-(5-fluoro-6-methoxypyridin-3-yl)-6-{[(3S)-1-(2-methylpropanoyl)pyrrolidin-3-yl]oxy}-9H-purine], the “Relative Selectivity versus PI3Kalpha” value is recorded as greater than 10.

Take `CCn1ncc(-c2nc3c(OC4CCN(C(=O)COC)C4)ncnc3n2C)c1C` (stereo not shown) [Compound 2-5, 8-(1-ethyl-5-methyl-1H-pyrazol-4-yl)-6-{[1-(methoxyacetyl)pyrrolidin-3-yl]oxy}-9-methyl-9H-purine]: the “Relative Selectivity versus PI3Kalpha” value is recorded as greater than 10.

Turning to `CCn1c(-c2cnc(C)nc2)nc2c(OC3CN(C(=O)C4CC4)CC34CC4)ncnc21` (stereo not shown) [Compound 3-63, (R— or S—)-6-{[5-(cyclopropylcarbonyl)-5-azaspiro[2.4]hept-7-yl]oxy}-9-ethyl-8-(2-methylpyrimidin-5-yl)-9H-purine], the “Relative Selectivity versus PI3Kalpha” value is greater than 10.

As to `CCC(=O)N1CC[C@H](Oc2ncnc3c2nc(-c2cnc(OC)c(C(F)(F)F)c2)n3C)C1` [Compound 3-6, (S)-1-(3-((8-(6-methoxy-5-(trifluoromethyl)pyridin-3-yl)-9-methyl-9H-purin-6-yl)oxy)pyrrolidin-1-yl)propan-1-one], the “Relative Selectivity versus PI3Kalpha” value was greater than 10.

As for `CCn1c(-c2cnc(C)nc2)nc2c(OC3CN(C(=O)OC(C)(C)C)CC3F)ncnc21` [Compound 1-44, [(3S,4S) and (3R,4R)]-tert-butyl 3-{[9-ethyl-8-(2-methylpyrimidin-5-yl)-9H-purin-6-yl]oxy}-4-fluoropyrrolidine-1-carboxylate], the “Relative Selectivity versus PI3Kalpha” value was greater than 10.

For `CCn1c(-c2ccc(OC)nc2)nc2c(O[C@H]3CCN(C(=O)C4CC(F)(F)C4)C3)ncnc21` [Compound 3-51, 6-({(3S)-1-[(3,3-difluorocyclobutyl)carbonyl]pyr-rolidin-3-yl}oxy)-9-ethyl-8-(6-methoxypyridin-3-yl)-9H-purine], the “Relative Selectivity versus PI3Kalpha” value is listed as greater than 10.

As for `CCn1c(-c2cnc(C)nc2)nc2c(O[C@H]3CCN(C(=O)C4CC4CF)C3)ncnc21` (single isomer, unassigned) [Compound 2-132, 9-ethyl-6-{[(3S)-1-{[(1S,2S)- or (1R,2R)-2-(fluoromethyl)cyclopropyl]carbonyl}pyrrolidin-3-yl]oxy}-8-(2-methylpyrimidin-5-yl)-9H-purine], the “Relative Selectivity versus PI3Kalpha” value was greater than 10.

Take `CCC(=O)N1CC[C@H](Oc2ncnc3c2nc(-c2cnc(OC)c(C)c2)n3C)C1` [Compound 2-94, (S)-1-(3-((8-(6-methoxy-5-methylpyridin-3-yl)-9-methyl-9H-purin-6-yl)oxy)pyrrolidin-1-yl)propan-1-one]: the “Relative Selectivity versus PI3Kalpha” value is given as greater than 10.

`CCn1ncc(-c2nc3c(O[C@H]4CCN(C(=O)c5ccnc(C)c5)C4)ncnc3n2C)c1C` [Compound 2-56, 8-(1-ethyl-5-methyl-1H-pyrazol-4-yl)-9-methyl-6-({(3S)-1-[(2-methylpyridin-4-yl)carbonyl]pyrrolidin-3-yl}oxy)-9H-purine]: the “Relative Selectivity versus PI3Kalpha” value was greater than 10.

Consider `CCn1c(-c2cnc(C)nc2)nc2c(O[C@H]3CCN(C(=O)N4C5CCC4CC5)C3)ncnc21` [Compound 5-24], for which the “Relative Selectivity versus PI3Kalpha” value is reported as greater than 10.

On to `CCn1c(-c2cnc(C)nc2)nc2c(O[C@H]3CCN(C(=O)C4[C@@H](C)[C@@H]4C)C3)ncnc21` (stereo partly drawn) [Compound 2-121, 6-({(3S)-1-[(2S,3S)-(2,3-dimethylcyclopropyl)carbonyl]pyrrolidin-3-yl}oxy)-9-ethyl-8-(2-methylpyrimidin-5-yl)-9H-purine], for which the “Relative Selectivity versus PI3Kalpha” value was greater than 10.

Take `CCn1c(-c2cnc(C)nc2)nc2c(O[C@H]3CCN(C(=O)C4CCC4C)C3)ncnc21` (single isomer, unassigned) [Compound 2-120, 9-ethyl-6-({(3S)-1-[([(1R,2S) or (1R,2R) or (1S,2R) or (1S,2S)]-methylcyclobutyl)carbonyl]pyrrolidin-3-yl}oxy)-8-(2-methylpyrimidin-5-yl)-9H-purine]: the “Relative Selectivity versus PI3Kalpha” value is listed as greater than 10.

For `CC(=O)Nc1ccc(-c2nc3c(O[C@H]4CCN(C(=O)OC(C)(C)C)C4)ncnc3n2C)cc1` [Compound 1-23, tert-butyl (3S)-3-({8-[4-(acetylamino)phenyl]-9-methyl-9H-purin-6-yl}oxy)pyrrolidine-1-carboxylate], the “Relative Selectivity versus PI3Kalpha” value is greater than 10.

Take `CCn1c(-c2cnc(C)nc2)nc2c(O[C@H]3CCN(C(=O)OC(C)(C)C)[C@@H]3C)ncnc21` [Compound 1-48, tert-butyl (2R,3S)-3-{[9-ethyl-8-(2-methylpyrimidin-5-yl)-9H-purin-6-yl]oxy}-2-methylpyrrolidine-1-carboxylate]: the “Relative Selectivity versus PI3Kalpha” value is listed as greater than 10.

For `CCn1ncc(-c2nc3c(S(=O)(=O)[C@H]4CCN(C(=O)C5CCOCC5)C4)ncnc3n2C)c1C` [Compound 10-5, (S)-(3-((8-(1-ethyl-5-methyl-1H-pyrazol-4-yl)-9-methyl-9H-purin-6-yl)sulfonyl)pyrrolidin-1-yl)(tetrahydro-2H-pyran-4-yl)methanone], the “Relative Selectivity versus PI3Kalpha” value is 5.

For `CCC(=O)N1CC[C@H](Oc2ncnc3c2nc(I)n3C)C1` [Compound 3-31, 8-iodo-9-methyl-6-{[(3S)-1-propanoylpyrrolidin-3-yl]oxy}-9H-purine], the “Relative Selectivity versus PI3Kalpha” value is greater than 10.

As for `CCC(=O)N1CC[C@H](Oc2ncnc3c2nc(-c2cnn(-c4ccccc4)c2)n3C)C1` [Compound 3-11, 9-methyl-8-(1-phenyl-1H-pyrazol-4-yl)-6-{[(3S)-1-propanoylpyrrolidin-3-yl]oxy}-9H-purine], the “Relative Selectivity versus PI3Kalpha” value was greater than 10.

As for `CCn1c(-c2cnc(C)nc2)nc2c(O[C@H]3CCN(c4nccs4)C3)ncnc21` [Compound 7-22, 9-ethyl-8-(2-methylpyrimidin-5-yl)-6-{[(3S)-1-(1,3-thiazol-2-yl)pyrrolidin-3-yl]oxy}-9H-purine], the “Relative Selectivity versus PI3Kalpha” value is greater than 10.

`CCC(=O)N1CC[C@H](Oc2ncnc3c2nc(-c2cc(O)cc(F)c2)n3C)C1` [Compound 3-9, 3-fluoro-5-(9-methyl-6-{[(3S)-1-propanoylpyrrolidin-3-yl]oxy}-9H-purin-8-yl)phenol]: the “Relative Selectivity versus PI3Kalpha” value is on record as greater than 10.

Take `CCn1ncc(-c2nc3c(O[C@H]4CCN(C(=O)c5cc(C)nn5C)C4)ncnc3n2C)c1C` [Compound 2-38, 6-({(3S)-1-[(1,3-dimethyl-1H-pyrazol-5-yl)carbonyl]pyrrolidin-3-yl}oxy)-8-(1-ethyl-5-methyl-1H-pyrazol-4-yl)-9-methyl-9H-purine]: the “Relative Selectivity versus PI3Kalpha” value is listed as 7.

As for `CCn1c(-c2ccc(OC)nc2)nc2c(O[C@H]3CCN(C(=O)C(C)C)C3)ncnc21` [Compound 3-50, 9-ethyl-8-(6-methoxypyridin-3-yl)-6-{[(3S)-1-(2-methylpropanoyl)pyrrolidin-3-yl]oxy}-9H-purine], the “Relative Selectivity versus PI3Kalpha” value is greater than 10.

Take `CCC(=O)N1CC[C@H](Oc2ncnc3c2nc(-c2cnn(C(C)(C)C)c2)n3C)C1` [Compound 3-16, 8-(1-tert-butyl-1H-pyrazol-4-yl)-9-methyl-6-{[(3S)-1-propanoylpyrrolidin-3-yl]oxy}-9H-purine]: the “Relative Selectivity versus PI3Kalpha” value was greater than 10.

In the case of `CCn1ncc(-c2nc3c(O[C@H]4CCN(c5ncnc6c5cnn6C)C4)ncnc3n2C)c1C` [Compound 7-14, 4-[(3S)-3-{[8-(1-ethyl-5-methyl-1H-pyrazol-4-yl)-9-methyl-9H-purin-6-yl]oxy}pyrrolidin-1-yl]-1-methyl-1H-pyrazolo[3,4-d]pyrimidine], the “Relative Selectivity versus PI3Kalpha” value was greater than 10.

In the case of `CCn1ncc(-c2nc3c(S[C@H]4CCN(C(=O)c5coc(C)n5)C4)ncnc3n2C)c1C` [Compound 10-11, (S)-(3-((8-(1-ethyl-5-methyl-1H-pyrazol-4-yl)-9-methyl-9H-purin-6-yl)thio)pyrrolidin-1-yl)(2-methyloxazol-4-yl)methanone], the “Relative Selectivity versus PI3Kalpha” value is listed as greater than 10.

Take `CCn1c(-c2ccc(OC)c(F)c2)nc2c(O[C@H]3CCN(C(=O)C4CC4)C3)ncnc21` [Compound 3-24, 6-{[(3S)-1-(cyclopropylcarbonyl)pyrrolidin-3-yl]oxy}-9-ethyl-8-(3-fluoro-4-methoxyphenyl)-9H-purine]: the “Relative Selectivity versus PI3Kalpha” value was greater than 10.

Take `CCn1c(-c2cnc(C)nc2)nc2c(O[C@H]3CCN(c4ccccn4)C3)ncnc21` [Compound 7-17, 9-ethyl-8-(2-methylpyrimidin-5-yl)-6-{[(3S)-1-pyridin-2-ylpyrrolidin-3-yl]oxy}-9H-purine]: the “Relative Selectivity versus PI3Kalpha” value was greater than 10.
